Experimental data from PMC9611297, “Design, Synthesis, Anticancer Activity and Molecular Docking of New 1,2,3-Triazole-Based Glycosides Bearing 1,3,4-Thiadiazolyl, Indolyl and Arylacetamide Scaffolds” (Molecules, 2022).
Where two headings read alike, the source gives them in different places.

Columns and labels:
[1] = target: EGFR^WT (Homo sapiens, UniProt P00533); test: EGFR^WT kinase inhibition (HTRF assay); assay type: biochemical; conditions: ATP 1.65 μM, 30 min, room temperature, read-out: IC50 (Mean ± SEM) (µM) EGFR^WT
Procedure: (§1) A homogeneous time-resolved fluorescence (HTRF) assay was applied in this test (Sigma). […] The assay was conducted for 30 min at room temperature. The reaction was stopped by the addition of detection reagents that contained EDTA. […] Three independent experiments were performed for each concentration.

[2] = target: EGFR^T790M (Homo sapiens, UniProt P00533, T790M); test: EGFR^T790M kinase inhibition (HTRF assay); assay type: biochemical; conditions: ATP 1.65 μM, 30 min, room temperature, read-out: IC50 (Mean ± SEM) (µM) EGFR^T790M
Procedure: as §1

[3] = target: HER-2 (Homo sapiens, UniProt P04626); test: HER-2 kinase inhibition (HTRF assay); assay type: biochemical; conditions: ATP 1.65 μM, 30 min, room temperature, read-out: IC50 (Mean ± SEM) (µM) HER-2 (converted)
Procedure: as §1

[4] = system: MCF-7 cells; test: Annexin V/PI apoptosis detection by flow cytometry; assay type: cell-based, human; conditions: MCF-7, 24 h, at IC50 concentration (7: 0.5 μM; 15: 0.6 μM); for Apoptosis Late: control 0.28%; for Apoptosis Early: control 0.46%; for Necrosis: control 1.25%; for Apoptosis Total: control 1.99
Procedure: The proportion of late apoptosis obtained with compounds 7 and 15 was higher than that of the early phase, leading to the induction of apoptosis and confirming the effectiveness of these derivatives in cancer therapy.
(§2) Apoptosis investigation and cell cycle analysis were performed by flow cytometry. MCF-7 cells were seeded at 8 × 10^4 and incubated at 37 °C in 5% CO2 overnight. After treatment with the tested compounds 7 and 15 for 24 h, cell pellets were collected and centrifuged (300 g, 5 min). For cell cycle analysis, cell pellets were fixed with 70% ethanol on ice for 15 min and collected again. The pellets were incubated with propidium iodide (PI) staining solution at room temperature for 1 h and analyzed with a Gallios flow cytometer (Beckman Coulter, Brea, CA, USA). Apoptosis detection was carried out by the FITC AnnexinV/PI commercial kit (Becton Dickenson, Franklin Lakes, NJ, USA) following the manufacturer’s protocol. The samples were analyzed by fluorescence-activated cell sorting (FACS) with a Gallios flow cytometer (Beckman Coulter, Brea, CA, USA) within 1 h after staining. Data were analyzed using Kaluza v 1.2 (Beckman Coulter).

[5] = system: MCF-7 cells; test: Cell cycle analysis (PI staining, flow cytometry); assay type: cell-based, human; conditions: MCF-7, 24 h treatment; for cell accumulation at sub-G1 phase (%pre G): untreated 1.99%; for cell accumulation at S phase (%DIP S): untreated 33.85%
Procedure: Moreover, the cessation of cell division at cell cycle checkpoints is considered one of the main roles of anticancer therapeutics.
as §2

[6] = system: MCF-7 (human breast adenocarcinoma) cell line; test: MTT cytotoxicity assay, MCF-7; conditions: read-out: IC50 (µM) ± SD MCF-7
Procedure: (§3) This test is based on MTT cleavage by mitochondrial dehydrogenases from viable cells [50, 51, 52]. […] After incubation, the media were removed, and 40 µL of MTT (2.5 mg mL^−1) was added to each well. Incubation was resumed for an additional 4 h. The purple formazan dye crystals were solubilized with 200 µL DMSO. Absorbance was measured at 590 nm in a Spectra Max Paradigm Multi-Mode microplate reader (Molecular Devices, LLC, San Jose, CA, USA). Relative cell viability was expressed as the mean percentage of viable cells compared to the untreated control cells.
(§4) All experiments were conducted in triplicate and repeated on three different days. All values are reported as mean ± SD. IC50 values were determined by SPSS Inc. probit analysis (IBM Corp., Armonk, NY, USA).

[7] = system: HCT-116 (human colorectal carcinoma) cell line; test: MTT cytotoxicity assay, HCT-116; conditions: read-out: IC50 (µM) ± SD HCT-116
Procedure: as §3, §4

[8] = MTT assay, 48 h incubation, mean ± SD

Sequence of EGFR^WT (P00533 25-1210): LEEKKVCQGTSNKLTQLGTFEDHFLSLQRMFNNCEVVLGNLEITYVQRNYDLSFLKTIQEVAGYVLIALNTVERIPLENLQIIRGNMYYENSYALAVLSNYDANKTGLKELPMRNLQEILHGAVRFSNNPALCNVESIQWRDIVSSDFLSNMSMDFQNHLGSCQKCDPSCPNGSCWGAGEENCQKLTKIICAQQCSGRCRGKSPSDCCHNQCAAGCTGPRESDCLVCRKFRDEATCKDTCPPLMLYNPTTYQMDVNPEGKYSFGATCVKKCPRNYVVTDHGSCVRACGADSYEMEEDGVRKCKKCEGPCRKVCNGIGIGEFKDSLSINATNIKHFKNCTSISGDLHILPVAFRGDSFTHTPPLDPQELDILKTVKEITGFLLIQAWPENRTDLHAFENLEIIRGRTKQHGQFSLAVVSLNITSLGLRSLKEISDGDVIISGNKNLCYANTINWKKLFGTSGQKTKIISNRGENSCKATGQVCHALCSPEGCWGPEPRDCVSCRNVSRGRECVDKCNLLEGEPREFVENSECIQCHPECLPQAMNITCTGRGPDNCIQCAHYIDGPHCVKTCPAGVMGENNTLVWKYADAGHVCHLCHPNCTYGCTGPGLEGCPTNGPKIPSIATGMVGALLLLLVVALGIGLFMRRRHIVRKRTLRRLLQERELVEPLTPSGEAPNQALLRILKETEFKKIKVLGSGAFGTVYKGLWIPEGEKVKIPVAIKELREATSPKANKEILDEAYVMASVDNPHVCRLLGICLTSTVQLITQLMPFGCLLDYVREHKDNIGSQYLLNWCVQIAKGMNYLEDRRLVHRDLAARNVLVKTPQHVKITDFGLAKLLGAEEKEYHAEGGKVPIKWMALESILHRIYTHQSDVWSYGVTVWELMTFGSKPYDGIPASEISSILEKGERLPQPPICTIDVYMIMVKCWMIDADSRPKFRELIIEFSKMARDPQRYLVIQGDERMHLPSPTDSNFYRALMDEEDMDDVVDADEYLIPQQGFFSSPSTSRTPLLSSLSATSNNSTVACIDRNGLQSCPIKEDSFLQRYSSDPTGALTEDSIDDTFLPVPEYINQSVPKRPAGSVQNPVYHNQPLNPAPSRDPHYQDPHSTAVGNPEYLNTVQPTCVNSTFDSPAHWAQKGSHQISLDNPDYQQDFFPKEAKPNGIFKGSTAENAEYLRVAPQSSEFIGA
Sequence of HER-2 (P04626 23-1255): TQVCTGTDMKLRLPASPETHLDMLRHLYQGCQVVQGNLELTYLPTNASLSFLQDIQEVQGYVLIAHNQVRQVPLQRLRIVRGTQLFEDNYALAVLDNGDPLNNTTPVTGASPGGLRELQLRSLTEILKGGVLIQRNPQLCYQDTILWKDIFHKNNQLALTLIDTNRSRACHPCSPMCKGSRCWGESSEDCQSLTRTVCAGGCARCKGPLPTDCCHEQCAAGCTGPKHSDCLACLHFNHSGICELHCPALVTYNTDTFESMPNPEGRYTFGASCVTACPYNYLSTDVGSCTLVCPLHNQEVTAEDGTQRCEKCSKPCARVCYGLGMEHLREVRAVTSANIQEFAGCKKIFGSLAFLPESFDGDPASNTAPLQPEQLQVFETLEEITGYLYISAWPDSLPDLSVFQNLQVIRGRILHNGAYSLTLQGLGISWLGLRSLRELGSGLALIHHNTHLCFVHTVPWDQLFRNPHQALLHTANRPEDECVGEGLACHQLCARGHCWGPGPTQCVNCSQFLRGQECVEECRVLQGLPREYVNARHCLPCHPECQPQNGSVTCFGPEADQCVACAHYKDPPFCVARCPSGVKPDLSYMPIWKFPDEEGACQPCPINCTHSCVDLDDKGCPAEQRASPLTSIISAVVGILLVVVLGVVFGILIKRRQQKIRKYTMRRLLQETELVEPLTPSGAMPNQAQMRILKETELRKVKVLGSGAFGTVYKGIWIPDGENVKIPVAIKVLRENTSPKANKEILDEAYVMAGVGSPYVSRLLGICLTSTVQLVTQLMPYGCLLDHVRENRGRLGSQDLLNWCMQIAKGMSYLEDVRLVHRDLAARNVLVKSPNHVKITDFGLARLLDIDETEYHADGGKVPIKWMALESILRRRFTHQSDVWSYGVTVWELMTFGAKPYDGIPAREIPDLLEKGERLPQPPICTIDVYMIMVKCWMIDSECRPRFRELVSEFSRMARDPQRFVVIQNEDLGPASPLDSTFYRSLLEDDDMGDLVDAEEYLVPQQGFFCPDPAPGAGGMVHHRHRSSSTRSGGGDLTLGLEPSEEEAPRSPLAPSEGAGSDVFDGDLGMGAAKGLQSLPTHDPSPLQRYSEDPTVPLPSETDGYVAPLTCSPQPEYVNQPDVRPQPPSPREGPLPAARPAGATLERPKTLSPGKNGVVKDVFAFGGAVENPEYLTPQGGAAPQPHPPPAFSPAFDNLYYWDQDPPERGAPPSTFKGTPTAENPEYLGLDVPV
Sequence of EGFR^T790M (P00533 25-1210 T790M): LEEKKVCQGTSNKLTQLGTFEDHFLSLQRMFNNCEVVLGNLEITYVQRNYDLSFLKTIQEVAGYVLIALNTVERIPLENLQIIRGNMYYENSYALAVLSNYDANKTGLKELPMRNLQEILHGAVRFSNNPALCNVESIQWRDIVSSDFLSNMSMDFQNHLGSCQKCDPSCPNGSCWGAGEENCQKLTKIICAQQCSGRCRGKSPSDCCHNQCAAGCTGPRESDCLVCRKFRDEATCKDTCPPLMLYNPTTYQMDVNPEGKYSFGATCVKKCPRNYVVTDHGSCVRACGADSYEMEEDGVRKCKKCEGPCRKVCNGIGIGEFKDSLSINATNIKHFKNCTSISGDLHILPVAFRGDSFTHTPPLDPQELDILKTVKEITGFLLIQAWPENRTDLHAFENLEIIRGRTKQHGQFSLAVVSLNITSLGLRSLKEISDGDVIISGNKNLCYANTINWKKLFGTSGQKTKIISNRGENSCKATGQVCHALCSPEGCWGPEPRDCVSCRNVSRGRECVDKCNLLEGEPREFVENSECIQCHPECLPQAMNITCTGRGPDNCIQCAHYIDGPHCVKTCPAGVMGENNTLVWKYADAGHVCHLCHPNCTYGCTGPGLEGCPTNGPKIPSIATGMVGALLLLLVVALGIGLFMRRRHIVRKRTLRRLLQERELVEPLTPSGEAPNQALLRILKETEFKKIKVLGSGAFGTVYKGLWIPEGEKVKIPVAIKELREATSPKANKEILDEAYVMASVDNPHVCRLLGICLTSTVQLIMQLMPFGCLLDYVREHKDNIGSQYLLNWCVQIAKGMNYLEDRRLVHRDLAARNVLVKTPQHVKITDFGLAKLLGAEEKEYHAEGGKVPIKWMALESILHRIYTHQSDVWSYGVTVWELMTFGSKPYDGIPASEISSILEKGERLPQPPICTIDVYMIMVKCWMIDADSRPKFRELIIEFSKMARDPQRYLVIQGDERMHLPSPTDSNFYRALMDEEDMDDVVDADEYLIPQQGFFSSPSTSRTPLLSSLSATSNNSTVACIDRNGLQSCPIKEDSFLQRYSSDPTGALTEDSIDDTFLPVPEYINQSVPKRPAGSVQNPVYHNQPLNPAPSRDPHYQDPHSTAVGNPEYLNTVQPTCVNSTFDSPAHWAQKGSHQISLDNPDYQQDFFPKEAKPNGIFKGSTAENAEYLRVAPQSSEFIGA

CCn1cc(C=Nc2nnc(SCCn3cc(CO[C@@H]4O[C@H](CO)[C@@H](O)[C@H](O)[C@H]4O)nn3)s2)c2ccccc21 [Compound 7, 1-(1-Ethyl-1H-indol-3-yl)-N-(5-((2-(4-({[β-D-glucopyranosyl]oxy}methyl)-1H-1,2,3-triazol-1-yl)ethyl)thio)-1,3,4-thiadiazol-2-yl)methanimine]
IC50 [1]: 0.3 ± 0.01 µM
IC50 [2]: 1.12 ± 0.55 µM
IC50 [3]: 2.25 ± 0.3 µM
Apoptosis Late [4]: 18.81%
Apoptosis Early [4]: 4.39%
Necrosis [4]: 11.41%
Apoptosis Total [4]: 34.61%
cell accumulation at sub-G1 phase (%pre G) [5]: 34.61%
cell accumulation at S phase (%DIP S) [5]: 43.51%
melting point: 210 to 213 °C
IC50 ([6]; Homo sapiens, MCF7, 48 h): 0.5 µM
IC50 ([7]; Homo sapiens, HCT-116, 48 h): 15.5 ± 0.2 µM

O=C(Cn1cc(CO[C@@H]2OC[C@@H](O)[C@H](O)[C@H]2O)nn1)Nc1ccc(F)cc1 [Compound 17, 2-(4-({[β-D-Xylopyranosyl]oxy}methyl)-1H-1,2,3-triazol-1-yl)-N-(4-fluorophenyl)acetamide]
melting point: 197 to 198 °C
IC50 ([6]; Homo sapiens, MCF7, 48 h): 30.1 ± 0.4 µM
IC50 ([7]; Homo sapiens, HCT-116, 48 h): 26.5 ± 0.3 µM

O=C(Cn1cc(CO[C@@H]2O[C@H](CO)[C@H](O)[C@H](O)[C@H]2O)nn1)Nc1ccc(F)cc1 [Compound 18, 2-(4-({[β-D-Galactopyranosyl]oxy}methyl)-1H-1,2,3-triazol-1-yl)-N-(4-fluorophenyl)acetamide]
IC50 ([6]; Homo sapiens, MCF7, 48 h): 31.6 ± 0.5 µM
IC50 ([7]; Homo sapiens, HCT-116, 48 h): 28.8 ± 0.1 µM

CC(=O)OC[C@H]1O[C@@H](OCc2cn(CC(=O)Nc3ccc(C)cc3)nn2)[C@H](OC(C)=O)[C@@H](OC(C)=O)[C@H]1OC(C)=O [Compound 12, 2-(4-({[2,3,4,6-Tetra-O-acetyl-β-D-galactopyranosyl]oxy}methyl)-1H-1,2,3-triazol-1-yl)-N-(p-tolyl)acetamide]
IC50 [1]: 12.7 ± 0.15 µM
IC50 [2]: 15.2 ± 0.2 µM
IC50 [3]: 18.4 µM
melting point: 98 to 99 °C
IC50 ([6]; Homo sapiens, MCF7, 48 h): 5.7 ± 0.1 µM
IC50 ([7]; Homo sapiens, HCT-116, 48 h): 2.2 ± 0.1 µM

CCn1cc(C=Nc2nnc(SCCn3cc(CO[C@@H]4O[C@H](COC(C)=O)[C@@H](OC(C)=O)[C@H](OC(C)=O)[C@H]4OC(C)=O)nn3)s2)c2ccccc21 [Compound 5, 1-(1-Ethyl-1H-indol-3-yl)-N-(5-((2-(4-({[2,3,4,6-tetra-O-acetyl-β-D-glucopyranosyl]oxy}methyl)-1H-1,2,3-triazol-1-yl)ethyl)thio)-1,3,4-thiadiazol-2-yl)methanimine]
melting point: 131 to 132 °C
IC50 ([6]; Homo sapiens, MCF7, 48 h): 13.9 ± 0.2 µM
IC50 ([7]; Homo sapiens, HCT-116, 48 h): 22.6 ± 0.2 µM

CCn1cc(/C=N\c2nnc(S)s2)c2ccccc21 [Compound 1]
IC50 ([6]; Homo sapiens, MCF7, 48 h): 18.1 ± 0.2 µM
IC50 ([7]; Homo sapiens, HCT-116, 48 h): 46.9 ± 0.5 µM

CC(=O)OC[C@H]1O[C@@H](OCc2cn(CC(=O)Nc3ccc(F)cc3)nn2)[C@H](OC(C)=O)[C@@H](OC(C)=O)[C@H]1OC(C)=O [Compound 14, 2-(4-({[2,3,4,6-Tetra-O-acetyl-β-D-galactopyranosyl]oxy}methyl)-1H-1,2,3-triazol-1-yl)-N-(4-fluorophenyl)acetamide]
IC50 ([6]; Homo sapiens, MCF7, 48 h): 35.3 ± 0.3 µM
IC50 ([7]; Homo sapiens, HCT-116, 48 h): 33.8 ± 0.3 µM

Cc1ccc(NC(=O)CN=[N+]=[N-])cc1 [Compound 9a]
IC50 ([6]; Homo sapiens, MCF7, 48 h): 24.1 ± 0.3 µM
IC50 ([7]; Homo sapiens, HCT-116, 48 h): 42.3 ± 0.6 µM

[N-]=[N+]=NCC(=O)Nc1ccc(F)cc1 [Compound 9b]
IC50 ([6]; Homo sapiens, MCF7, 48 h): 26.4 ± 0.3 µM
IC50 ([7]; Homo sapiens, HCT-116, 48 h): 33.3 ± 0.4 µM

CCn1cc(C=Nc2nnc(SCCn3cc(CO[C@@H]4OC[C@@H](O)[C@H](O)[C@H]4O)nn3)s2)c2ccccc21 [Compound 8, 1-(1-Ethyl-1H-indol-3-yl)-N-(5-((2-(4-({[β-D-Xylopyranosyl]oxy}methyl)-1H-1,2,3-triazol-1-yl)ethyl)thio)-1,3,4-thiadiazol-2-yl)methanimine]
IC50 [1]: 0.38 ± 0.05 µM
IC50 [2]: 1.95 ± 0.02 µM
IC50 [3]: 2.77 ± 0.13 µM
melting point: 203 to 204 °C
IC50 ([6]; Homo sapiens, MCF7, 48 h): 4.2 ± 0.1 µM
IC50 ([7]; Homo sapiens, HCT-116, 48 h): 4.6 ± 0.1 µM

CC(=O)O[C@@H]1[C@@H](OC(C)=O)[C@H](OCc2cn(CC(=O)Nc3ccc(C)cc3)nn2)OC[C@H]1OC(C)=O [Compound 11, 2-(4-({[2,3,4-Tri-O-acetyl-β-D-xylopyranosyl]oxy}methyl)-1H-1,2,3-triazol-1-yl)-N-(p-tolyl)acetamide]
IC50 [1]: 6.45 ± 0.1 µM
IC50 [2]: 11.8 ± 0.05 µM
IC50 [3]: 8.6 ± 0.2 µM
melting point: 95 to 96 °C
IC50 ([6]; Homo sapiens, MCF7, 48 h): 0.8 µM
IC50 ([7]; Homo sapiens, HCT-116, 48 h): 15.4 ± 0.2 µM

CC(=O)O[C@@H]1[C@@H](OC(C)=O)[C@H](OCc2cn(CC(=O)Nc3ccc(F)cc3)nn2)OC[C@H]1OC(C)=O [Compound 13, 2-(4-({[2,3,4-Tri-O-acetyl-β-D-xylopyranosyl]oxy}methyl)-1H-1,2,3-triazol-1-yl)-N-(4-fluorophenyl)acetamide]
melting point: 142 to 144 °C
IC50 ([6]; Homo sapiens, MCF7, 48 h): 34.4 ± 0.4 µM
IC50 ([7]; Homo sapiens, HCT-116, 48 h): 38.2 ± 0.5 µM

CCn1cc(C=Nc2nnc(SCCn3cc(CO[C@@H]4OC[C@@H](OC(C)=O)[C@H](OC(C)=O)[C@H]4OC(C)=O)nn3)s2)c2ccccc21 [Compound 6, 1-(1-Ethyl-1H-indol-3-yl)-N-(5-((2-(4-({[2,3,4-tri-O-acetyl-β-D-xylopyranos-yl]oxy}methyl)-1H-1,2,3-triazol-1-yl)ethyl)thio)-1,3,4-thiadiazol-2-yl)methanimine]
melting point: 136 to 138 °C
IC50 ([6]; Homo sapiens, MCF7, 48 h): 10.8 ± 1.5 µM
IC50 ([7]; Homo sapiens, HCT-116, 48 h): 20.8 ± 0.2 µM

CCn1cc(C=Nc2nnc(SCCBr)s2)c2ccccc21 [Compound 2, N-(5-((2-Bromoethyl)thio)-1,3,4-thiadiazol-2-yl)-1-(1-ethyl-1H-indol-3-yl)methanimine]
melting point: 90 to 92 °C
IC50 [6, 8]: 14.1 ± 0.3 µM
IC50 [7, 8]: 52.7 ± 0.6 µM

CCn1cc(C=Nc2nnc(SCCN=[N+]=[N-])s2)c2ccccc21 [Compound 3, N-(5-((2-Azidoethyl)thio)-1,3,4-thiadiazol-2-yl)-1-(1-ethyl-1H-indol-3-yl)methanimine]
melting point: 101 to 102 °C
IC50 ([6]; Homo sapiens, MCF7, 48 h): 1.1 ± 0.1 µM
IC50 ([7]; Homo sapiens, HCT-116, 48 h): 30.8 ± 0.4 µM

COc1cccc2c1C(=O)c1c(O)c3c(c(O)c1C2=O)C[C@@](O)(C(=O)CO)C[C@@H]3O[C@H]1C[C@H](N)[C@H](O)[C@H](C)O1 [Doxorubicin, reference compound]
IC50 ([6]; Homo sapiens, MCF7, 48 h): 9.4 ± 0.1 µM
IC50 ([7]; Homo sapiens, HCT-116, 48 h): 12.1 ± 0.2 µM

Cc1ccc(NC(=O)Cn2cc(CO[C@@H]3OC[C@@H](O)[C@H](O)[C@H]3O)nn2)cc1 [Compound 15, 2-(4-({[β-D-Xylopyranosyl]oxy}methyl)-1H-1,2,3-triazol-1-yl)-N-(p-tolyl)acetamide]
IC50 [1]: 0.21 ± 0.05 µM
IC50 [2]: 1.5 ± 0.11 µM
IC50 [3]: 2.18 ± 0.42 µM
Apoptosis Late [4]: 25.48%
Apoptosis Early [4]: 2.69%
Necrosis [4]: 14.28%
Apoptosis Total [4]: 42.45%
cell accumulation at sub-G1 phase (%pre G) [5]: 42.45%
cell accumulation at S phase (%DIP S) [5]: 52.08%
melting point: 193 to 194 °C
IC50 ([6]; Homo sapiens, MCF7, 48 h): 0.6 µM
IC50 ([7]; Homo sapiens, HCT-116, 48 h): 11.4 ± 0.3 µM

Cc1ccc(NC(=O)Cn2cc(CO[C@@H]3O[C@H](CO)[C@H](O)[C@H](O)[C@H]3O)nn2)cc1 [Compound 16, 2-(4-({[β-D-Galactopyranosyl]oxy}methyl)-1H-1,2,3-triazol-1-yl)-N-(p-tolyl)acetamide]
melting point: 199 to 200 °C
IC50 ([6]; Homo sapiens, MCF7, 48 h): 20.3 ± 0.9 µM
IC50 ([7]; Homo sapiens, HCT-116, 48 h): 35.7 ± 0.4 µM
